Test results from patent US5346897A, “Agents for potentiating the effects of antitumor agents and combating multiple drug resistance” (Burroughs Wellcome Co., priority 1992, dated 1994).
Read-outs that look alike come from different tables or passages of the source. *1 amine or outer side, *2 acyl side, *3 side chain or, on linkers, in order; H or OH if unused. Where a SMILES comes first, the peptide text is derived from it. Bridges are numbered along the chain shown (N, C = ends). Roman numbers before positions name the chains, in order. [ ]: non-standard residue; d: D form. Actinocin(9to1) = Cc1c2oc3c(C)ccc(C(=O)[*:1])c3nc-2c(C(=O)[*:2])c(N)c1=O; NMeV = CN[C@H](C(=O)O)C(C)C; Sar = CNCC(=O)O

Key:
[1] = tested on: resistant sublines of murine leukemia cells; conditions: Tsuruo et al., Cancer Res.; cited from earlier work
in vitro [2] = conditions: human, kb 3-1 cells
Method: (§1) The procedure for assaying the cytotoxicity of potentiating agents with human KB epidermoid carcinoma cells is essentially the same as the assay procedure described above for use with Chinese hamster ovary cells. […] After 48 hours of incubation at 37° C., the media is changed and cells are treated with actinomycin D at 0.1 nM (3-1) or 20 nM (V-i). The test potentiating agent is introduced to one-half the untreated cultures and onehalf the Act D treated cultures at 1 and 10 μM. After 96 hours of additional incubation at 37° C, 0.5 mg/ml MTT dye is added, the cells are incubated for three hours, after which the cells are dissolved in DMSO, and the absorbance is then read at 570 nm.

[3] = tested on: C5S32 Chinese hamster ovary cells (drug resistant); test: In vitro cytotoxicity of potentiating agents in Chinese hamster ovary cells, multidrug resistant C5S32 line, MTT; format: cell-based; conditions: 96 h, Act D alone = 1.00
[4] = as above; format: cell-based; conditions: hamster, c5s32 cho cells, C5S32 drug resistant, no Act D, untreated = 1.00, read-out: Normalized absorbance (cell survival), potentiating agent alone, fraction of untreated culture
[5] = tested on: AuxB1 Chinese hamster ovary cells (wildtype); test: in vitro; format: cell-based; conditions: auxb1 cho cells, 96 h
in vitro [6] = format: cell-based, Chinese hamster; conditions: hamster, auxb1 cho cells
[7] = tested on: KB V-1 human epidermoid carcinoma cells (drug resistant); test: In vitro cytotoxicity of potentiating agents in human KB epidermoid carcinoma cells, drug resistant KB V-1, MTT; conditions: KB V-1 drug resistant, 96 h, Act D alone = 1.00
Method: as §1

[8] = as above; conditions: human, kb v-1 cells
Method: as §1

[9] = tested on: KB 3-1 human epidermoid carcinoma cells (wildtype); conditions: kb 3-1 cells, 96 h
Method: as §1

[10] = tested on: Chinese hamster ovary (CHO) tissue culture cells (AuxB1 and C5S32); test: Cytotoxicity of Actinomycin D alone in Chinese hamster ovary cells (AuxB1 and C5S32); format: cell-based

## CCN(CC)CCn1c(=O)c(Cc2ccc(OC)cc2)nc2ccccc21 [caroverine]
[1]
  enhancement of the activity of antitumor agents against resistant sublines of murine leukemia cells: enhance the activity of antitumor agents

## CCOC(=O)/C=C/c1cccc(/C(=C/CN2CCCC2)c2ccc(C)cc2)n1 [Compound (B), Ethyl (E)-3-{6-[3-pyrrolidino-l-(4-tolyl)prop-lE-enyl]-2-pyridyl}acrylate]
In vitro [2]
  viability at 96 h, 1 µM: 58%
  viability at 96 h, 10 µM: 37%
[3]; potentiating agent 1 μM + Act D 0.5 μM
  Normalized absorbance (cell survival), potentiating agent + Act D, fraction of Act D alone: 0.63
[3]; potentiating agent 10 μM + Act D 0.5 μM
  Normalized absorbance (cell survival), potentiating agent + Act D, fraction of Act D alone: 0.14
[4]; potentiating agent 1 μM
  viability at 96 h, 1 µM: 77%
[4]; potentiating agent 10 μM
  viability at 96 h, 10 µM: 52%
[5]; 1 µM
  Normalized absorbance (cell survival), potentiating agent + Act D, fraction of Act D alone: 0.63
[5]; 10 µM
  Normalized absorbance (cell survival), potentiating agent + Act D, fraction of Act D alone: 0.29
In vitro [6]
  viability at 96 h, 1 µM: 92%
  viability at 96 h, 10 µM: 93%
[7]; potentiating agent 1 μM + actinomycin D 20 nM
  Normalized absorbance (cell survival), potentiating agent + Act D, fraction of Act D alone: 0.48
[7]; potentiating agent 10 μM + actinomycin D 20 nM
  Normalized absorbance (cell survival), potentiating agent + Act D, fraction of Act D alone: 0.04
[8]
  viability at 96 h, 1 µM: 36%
  viability at 96 h, 10 µM: 14%
[9]; 1 µM
  Normalized absorbance (cell survival), potentiating agent + Act D, fraction of Act D alone: 0.55
[9]; 10 µM
  Normalized absorbance (cell survival), potentiating agent + Act D, fraction of Act D alone: 0.45

## C=C[C@H]1C[N@@]2CC[C@H]1C[C@@H]2[C@@H](O)c1ccnc2ccc(OC)cc12 [quinidine]
[1]
  enhancement of the activity of antitumor agents against resistant sublines of murine leukemia cells: enhance the activity of antitumor agents

## COc1ccc([C@@H]2Sc3ccccc3N(CCN(C)C)C(=O)[C@@H]2OC(C)=O)cc1 [diltiazem]
[1]
  enhancement of the activity of antitumor agents against resistant sublines of murine leukemia cells: enhance the activity of antitumor agents

## Cc1c2oc3c(C)ccc(C(=O)N[C@@H]4C(=O)N[C@H](C(C)C)C(=O)N5CCC[C@H]5C(=O)N(C)CC(=O)N(C)[C@@H](C(C)C)C(=O)O[C@@H]4C)c3nc-2c(C(=O)N[C@@H]2C(=O)N[C@H](C(C)C)C(=O)N3CCC[C@H]3C(=O)N(C)CC(=O)N(C)[C@@H](C(C)C)C(=O)O[C@@H]2C)c(N)c1=O [Actinomycin D] (I: T[dV]P[Sar][NMeV] / II: T[dV]P[Sar][NMeV]; ester I:1-I:C, II:1-II:C; linker I:N-II:N via Actinocin(9to1))
[10]; Act D alone (0.01 μM AuxB1, 0.5 μM C5S32), in most experiments
  reduction in cell number below the value of completely untreated cultures: 10-20%
[10]; C5S32 vs AuxB1
  resistance of C5S32 cells to Actinomycin D compared to the parental AuxB1 cell line: about 200 fold

## CN1CCN(CCCN2c3ccccc3Sc3ccc(C(F)(F)F)cc32)CC1 [trifluoperazine]
[1]
  enhancement of the activity of antitumor agents against resistant sublines of murine leukemia cells: enhance the activity of antitumor agents

## COC(=O)C1=C(C)NC(C)=C(C(=O)OCCN(C)Cc2ccccc2)C1c1cccc([N+](=O)[O-])c1 (stereo not shown) [nicardipine]
[1]
  enhancement of the activity of antitumor agents against resistant sublines of murine leukemia cells: enhance the activity of antitumor agents

## CN(C)CCCN1c2ccccc2CCc2ccc(Cl)cc21 [clomipramine]
[1]
  enhancement of the activity of antitumor agents against resistant sublines of murine leukemia cells: enhance the activity of antitumor agents

## COc1ccc(CCN(C)CCCC(C#N)(c2ccc(OC)c(OC)c2)C(C)C)cc1OC (stereo not shown) [Verapamil]
[1]
  enhancement of the activity of antitumor agents against resistant sublines of murine leukemia cells: enhance the activity of antitumor agents
